Measured values taken from ChEMBL document CHEMBL5537170, “Design, Synthesis, and Anti-Osteoporotic Characterization of Arginine N-Glycosylated Teriparatide Analogs via the Silver-catalyzed Solid-Phase Glycosylation Strategy” (J Med Chem, 2024).
Active and inactive are the calls of the source. No cut-off for these calls is given here. *1 amine or outer side, *2 acyl side, *3 side chain or, on linkers, in order; H or OH if unused. Where a SMILES comes first, the peptide text is derived from it. [ ]: non-standard residue; d: D form. X4 = N=C(NCCC[C@H](N[*:1])C(=O)[*:2])N[C@@H]1O[C@H](CO)[C@H](O)[C@H](O)[C@H]1O

Experiments:
[1] = Induction of osteoblast differentiation in C57BL/6 mouse Pre-Osteoblast cells assessed as fold increase in ephrinB2 protein expression at 50 nM measured after 72 hrs by Western blot analysis relative to control; assay type: functional
Mus musculus [2] = experiment: Anti-osteoporosis activity in ovariectomized C57BL/6J mouse model assessed as increase in bone surface density in femur at 20 microg/kg, sc administered 3 times a week for 8 weeks by micro-CT analysis; assay type: functional, organism-based; conditions: dose 20.0 µg/kg
[3] = Induction of osteoblast differentiation in C57BL/6 mouse Pre-Osteoblast cells assessed as fold increase in ephrinB2 protein expression at 100 nM measured after 72 hrs by Western blot analysis relative to control; assay type: functional
Mus musculus [4] = experiment: Anti-osteoporosis activity in ovariectomized C57BL/6J mouse model assessed as increase in trabecular number in femur at 20 microg/kg, sc administered 3 times a week for 8 weeks by micro-CT analysis; assay type: functional, organism-based; conditions: dose 20.0 µg/kg
[5] = Stability in human serum assessed as compound remaining at 1 mg/ml measured after 12 hrs by HPLC analysis; assay type: ADME, cell-free; conditions: read-out: Stability
Pre-Osteoblast [6] = experiment: Induction of osteoblast differentiation in C57BL/6 mouse Pre-Osteoblast cells assessed as increase in bone mineralization by measuring increase in area of calcium nodules measured after 14 days by Alizarin Red S staining based analysis; assay type: functional, cell-based; conditions: time 14.0 day
Mus musculus [7] = experiment: Anti-osteoporosis activity in ovariectomized C57BL/6J mouse model assessed as increase in bone volume percent in femur at 20 microg/kg, sc administered 3 times a week for 8 weeks by micro-CT analysis; assay type: functional, organism-based; conditions: dose 20.0 µg/kg
[8] = Induction of osteoblast differentiation in C57BL/6 mouse Pre-Osteoblast cells assessed as fold increase in ephrinB2 protein expression at 200 nM measured after 72 hrs by Western blot analysis relative to control; assay type: functional
Pre-Osteoblast [9] = experiment: Induction of osteoblast differentiation in C57BL/6 mouse Pre-Osteoblast cells assessed as increase in ALP expression by measuring increase in ALP-positive cells with purple color at 50 nM measured after 2 days by ALP staining based analysis; assay type: functional, cell-based; conditions: time 2.0 day
[10] = Cytotoxicity against C57BL/6 mouse Pre-Osteoblast cells assessed as cell death upto 5 uM incubated for 4 days by CCK-8 assay; assay type: toxicity, cell-based; conditions: 96 h, time 4 day
Pre-Osteoblast [11] = experiment: Induction of osteoblast differentiation in C57BL/6 mouse Pre-Osteoblast cells assessed as increase in bone mineralization by measuring increase in red calcium nodules measured after 14 days by Alizarin Red S staining based analysis; assay type: functional, cell-based; conditions: time 14.0 day

CC[C@H](C)[C@H](NC(=O)[C@H](CCC(=O)O)NC(=O)[C@H](CO)NC(=O)[C@@H](NC(=O)[C@H](CO)NC(C)=O)C(C)C)C(=O)N[C@@H](CCC(N)=O)C(=O)N[C@@H](CC(C)C)C(=O)N[C@@H](CCSC)C(=O)N[C@@H](Cc1cnc[nH]1)C(=O)N[C@@H](CC(N)=O)C(=O)N[C@@H](CC(C)C)C(=O)NCC(=O)N[C@@H](CCCCN)C(=O)N[C@@H](Cc1cnc[nH]1)C(=O)N[C@@H](CC(C)C)C(=O)N[C@@H](CC(N)=O)C(=O)N[C@@H](CO)C(=O)N[C@@H](CCSC)C(=O)N[C@@H](CCC(=O)O)C(=O)N[C@@H](CCCNC(=N)N[C@@H]1OC[C@@H](O)[C@H](O)[C@H]1O)C(=O)N[C@H](C(=O)N[C@@H](CCC(=O)O)C(=O)N[C@@H](Cc1c[nH]c2ccccc12)C(=O)N[C@@H](CC(C)C)C(=O)N[C@@H](CCCNC(=N)N)C(=O)N[C@@H](CCCCN)C(=O)N[C@@H](CCCCN)C(=O)N[C@@H](CC(C)C)C(=O)N[C@@H](CCC(N)=O)C(=O)N[C@@H](CC(=O)O)C(=O)N[C@H](C(=O)N[C@@H](Cc1cnc[nH]1)C(=O)N[C@@H](CC(N)=O)C(=O)N[C@@H](Cc1ccccc1)C(N)=O)C(C)C)C(C)C
fold change (FC) [1]: 1.04 | Activity (Mus musculus [2]): Active | fold change (FC) [3]: 1.28 | Activity (Mus musculus [4]): Active | remaining at 12 h, 1 mg/ml [5]: > 75% | Activity (Pre-Osteoblast [6]): Active | Activity (Mus musculus [7]): Active | fold change (FC) [8]: 1.29 | Activity (Pre-Osteoblast [9]): Active | Activity [10]: Non-Toxic | Activity (Pre-Osteoblast [11]): Active

CC[C@H](C)[C@H](NC(=O)[C@H](CCC(=O)O)NC(=O)[C@H](CO)NC(=O)[C@@H](NC(=O)[C@H](CO)NC(C)=O)C(C)C)C(=O)N[C@@H](CCC(N)=O)C(=O)N[C@@H](CC(C)C)C(=O)N[C@@H](CCSC)C(=O)N[C@@H](Cc1cnc[nH]1)C(=O)N[C@@H](CC(N)=O)C(=O)N[C@@H](CC(C)C)C(=O)NCC(=O)N[C@@H](CCCCN)C(=O)N[C@@H](Cc1cnc[nH]1)C(=O)N[C@@H](CC(C)C)C(=O)N[C@@H](CC(N)=O)C(=O)N[C@@H](CO)C(=O)N[C@@H](CCSC)C(=O)N[C@@H](CCC(=O)O)C(=O)N[C@@H](CCCNC(=N)N[C@@H]1O[C@H](CO)[C@H](O)[C@H](O)[C@H]1O)C(=O)N[C@H](C(=O)N[C@@H](CCC(=O)O)C(=O)N[C@@H](Cc1c[nH]c2ccccc12)C(=O)N[C@@H](CC(C)C)C(=O)N[C@@H](CCCNC(=N)N[C@@H]1O[C@H](CO)[C@H](O)[C@H](O)[C@H]1O)C(=O)N[C@@H](CCCCN)C(=O)N[C@@H](CCCCN)C(=O)N[C@@H](CC(C)C)C(=O)N[C@@H](CCC(N)=O)C(=O)N[C@@H](CC(=O)O)C(=O)N[C@H](C(=O)N[C@@H](Cc1cnc[nH]1)C(=O)N[C@@H](CC(N)=O)C(=O)N[C@@H](Cc1ccccc1)C(N)=O)C(C)C)C(C)C (Ac-SVSEIQLMHNLGKHLNSME[X4]VEWL[X4]KKLQDVHNF-NH2)
Activity [10]: Non-Toxic

CC[C@H](C)[C@H](NC(=O)[C@H](CCC(=O)O)NC(=O)[C@H](CO)NC(=O)[C@@H](NC(=O)[C@H](CO)NC(C)=O)C(C)C)C(=O)N[C@@H](CCC(N)=O)C(=O)N[C@@H](CC(C)C)C(=O)N[C@@H](CCSC)C(=O)N[C@@H](Cc1cnc[nH]1)C(=O)N[C@@H](CC(N)=O)C(=O)N[C@@H](CC(C)C)C(=O)NCC(=O)N[C@@H](CCCCN)C(=O)N[C@@H](Cc1cnc[nH]1)C(=O)N[C@@H](CC(C)C)C(=O)N[C@@H](CC(N)=O)C(=O)N[C@@H](CO)C(=O)N[C@@H](CCSC)C(=O)N[C@@H](CCC(=O)O)C(=O)N[C@@H](CCCNC(=N)N[C@@H]1O[C@@H](C)[C@H](O)[C@@H](O)[C@H]1O)C(=O)N[C@H](C(=O)N[C@@H](CCC(=O)O)C(=O)N[C@@H](Cc1c[nH]c2ccccc12)C(=O)N[C@@H](CC(C)C)C(=O)N[C@@H](CCCNC(=N)N)C(=O)N[C@@H](CCCCN)C(=O)N[C@@H](CCCCN)C(=O)N[C@@H](CC(C)C)C(=O)N[C@@H](CCC(N)=O)C(=O)N[C@@H](CC(=O)O)C(=O)N[C@H](C(=O)N[C@@H](Cc1cnc[nH]1)C(=O)N[C@@H](CC(N)=O)C(=O)N[C@@H](Cc1ccccc1)C(N)=O)C(C)C)C(C)C
Activity [10]: Non-Toxic

CC[C@H](C)[C@H](NC(=O)[C@H](CCC(=O)O)NC(=O)[C@H](CO)NC(=O)[C@@H](NC(=O)[C@H](CO)NC(C)=O)C(C)C)C(=O)N[C@@H](CCC(N)=O)C(=O)N[C@@H](CC(C)C)C(=O)N[C@@H](CCSC)C(=O)N[C@@H](Cc1cnc[nH]1)C(=O)N[C@@H](CC(N)=O)C(=O)N[C@@H](CC(C)C)C(=O)NCC(=O)N[C@@H](CCCCN)C(=O)N[C@@H](Cc1cnc[nH]1)C(=O)N[C@@H](CC(C)C)C(=O)N[C@@H](CC(N)=O)C(=O)N[C@@H](CO)C(=O)N[C@@H](CCSC)C(=O)N[C@@H](CCC(=O)O)C(=O)N[C@@H](CCCNC(=N)N[C@@H]1O[C@H](CO)[C@@H](O[C@H]2O[C@H](CO)[C@@H](O)[C@H](O)[C@H]2O)[C@H](O)[C@H]1O)C(=O)N[C@H](C(=O)N[C@@H](CCC(=O)O)C(=O)N[C@@H](Cc1c[nH]c2ccccc12)C(=O)N[C@@H](CC(C)C)C(=O)N[C@@H](CCCNC(=N)N)C(=O)N[C@@H](CCCCN)C(=O)N[C@@H](CCCCN)C(=O)N[C@@H](CC(C)C)C(=O)N[C@@H](CCC(N)=O)C(=O)N[C@@H](CC(=O)O)C(=O)N[C@H](C(=O)N[C@@H](Cc1cnc[nH]1)C(=O)N[C@@H](CC(N)=O)C(=O)N[C@@H](Cc1ccccc1)C(N)=O)C(C)C)C(C)C
Activity [10]: Non-Toxic

CC[C@H](C)[C@H](NC(=O)[C@H](CCC(=O)O)NC(=O)[C@H](CO)NC(=O)[C@@H](NC(=O)[C@H](CO)NC(C)=O)C(C)C)C(=O)N[C@@H](CCC(N)=O)C(=O)N[C@@H](CC(C)C)C(=O)N[C@@H](CCSC)C(=O)N[C@@H](Cc1cnc[nH]1)C(=O)N[C@@H](CC(N)=O)C(=O)N[C@@H](CC(C)C)C(=O)NCC(=O)N[C@@H](CCCCN)C(=O)N[C@@H](Cc1cnc[nH]1)C(=O)N[C@@H](CC(C)C)C(=O)N[C@@H](CC(N)=O)C(=O)N[C@@H](CO)C(=O)N[C@@H](CCSC)C(=O)N[C@@H](CCC(=O)O)C(=O)N[C@@H](CCCNC(=N)N[C@@H]1O[C@H](CO)[C@@H](O[C@H]2O[C@H](CO)[C@@H](O)[C@H](O)[C@H]2O)[C@H](O)[C@H]1O)C(=O)N[C@H](C(=O)N[C@@H](CCC(=O)O)C(=O)N[C@@H](Cc1c[nH]c2ccccc12)C(=O)N[C@@H](CC(C)C)C(=O)N[C@@H](CCCNC(=N)N[C@@H]1O[C@H](CO)[C@@H](O[C@H]2O[C@H](CO)[C@@H](O)[C@H](O)[C@H]2O)[C@H](O)[C@H]1O)C(=O)N[C@@H](CCCCN)C(=O)N[C@@H](CCCCN)C(=O)N[C@@H](CC(C)C)C(=O)N[C@@H](CCC(N)=O)C(=O)N[C@@H](CC(=O)O)C(=O)N[C@H](C(=O)N[C@@H](Cc1cnc[nH]1)C(=O)N[C@@H](CC(N)=O)C(=O)N[C@@H](Cc1ccccc1)C(N)=O)C(C)C)C(C)C
Activity [10]: Non-Toxic

CC[C@H](C)[C@H](NC(=O)[C@H](CCC(=O)O)NC(=O)[C@H](CO)NC(=O)[C@@H](NC(=O)[C@H](CO)NC(C)=O)C(C)C)C(=O)N[C@@H](CCC(N)=O)C(=O)N[C@@H](CC(C)C)C(=O)N[C@@H](CCSC)C(=O)N[C@@H](Cc1cnc[nH]1)C(=O)N[C@@H](CC(N)=O)C(=O)N[C@@H](CC(C)C)C(=O)NCC(=O)N[C@@H](CCCCN)C(=O)N[C@@H](Cc1cnc[nH]1)C(=O)N[C@@H](CC(C)C)C(=O)N[C@@H](CC(N)=O)C(=O)N[C@@H](CO)C(=O)N[C@@H](CCSC)C(=O)N[C@@H](CCC(=O)O)C(=O)N[C@@H](CCCNC(=N)N[C@@H]1O[C@H](CO)[C@@H](O)[C@H]1O)C(=O)N[C@H](C(=O)N[C@@H](CCC(=O)O)C(=O)N[C@@H](Cc1c[nH]c2ccccc12)C(=O)N[C@@H](CC(C)C)C(=O)N[C@@H](CCCNC(=N)N[C@@H]1O[C@H](CO)[C@@H](O)[C@H]1O)C(=O)N[C@@H](CCCCN)C(=O)N[C@@H](CCCCN)C(=O)N[C@@H](CC(C)C)C(=O)N[C@@H](CCC(N)=O)C(=O)N[C@@H](CC(=O)O)C(=O)N[C@H](C(=O)N[C@@H](Cc1cnc[nH]1)C(=O)N[C@@H](CC(N)=O)C(=O)N[C@@H](Cc1ccccc1)C(N)=O)C(C)C)C(C)C
Activity [10]: Non-Toxic

CC[C@H](C)[C@H](NC(=O)[C@H](CCC(=O)O)NC(=O)[C@H](CO)NC(=O)[C@@H](NC(=O)[C@H](CO)NC(C)=O)C(C)C)C(=O)N[C@@H](CCC(N)=O)C(=O)N[C@@H](CC(C)C)C(=O)N[C@@H](CCSC)C(=O)N[C@@H](Cc1cnc[nH]1)C(=O)N[C@@H](CC(N)=O)C(=O)N[C@@H](CC(C)C)C(=O)NCC(=O)N[C@@H](CCCCN)C(=O)N[C@@H](Cc1cnc[nH]1)C(=O)N[C@@H](CC(C)C)C(=O)N[C@@H](CC(N)=O)C(=O)N[C@@H](CO)C(=O)N[C@@H](CCSC)C(=O)N[C@@H](CCC(=O)O)C(=O)N[C@@H](CCCNC(=N)N)C(=O)N[C@H](C(=O)N[C@@H](CCC(=O)O)C(=O)N[C@@H](Cc1c[nH]c2ccccc12)C(=O)N[C@@H](CC(C)C)C(=O)N[C@@H](CCCNC(=N)N[C@@H]1O[C@H](CO)[C@H](O)[C@H](O)[C@H]1O)C(=O)N[C@@H](CCCCN)C(=O)N[C@@H](CCCCN)C(=O)N[C@@H](CC(C)C)C(=O)N[C@@H](CCC(N)=O)C(=O)N[C@@H](CC(=O)O)C(=O)N[C@H](C(=O)N[C@@H](Cc1cnc[nH]1)C(=O)N[C@@H](CC(N)=O)C(=O)N[C@@H](Cc1ccccc1)C(N)=O)C(C)C)C(C)C
Activity [10]: Non-Toxic
